This is an account of results in patent US20210087206A1, “MACROCYCLIC KINASE INHIBITORS AND THEIR USE” (TURNING POINT THERAPEUTICS, INC., priority 2017, published 2021).

In one data set the test system is KG-1 cell (OP2-FGFR1). The data set can be described thus: Cell proliferation assay (CellTiter-Glo). The class given is cell-based. The following applies: Homo sapiens, anti-cell proliferation, 72 hours. A digest of the protocol: (§1)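 Cells seeded 24 h, then exposed to compounds for 72 h at 37° C., 5% CO2. Proliferation read by CellTiter-Glo luminescent ATP detection; IC50 from dose-response fits.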
On the technique in general: Cellular ATP, detected with luciferase, serves as a proxy for viable cell number.

The subject of another data set is KM12 (TPM3-TRKA). Nature of the data set: Cell proliferation assay (CellTiter-Glo). It is filed as cell-based. The following applies: Homo sapiens, anti-cell proliferation, 72 hours. The method, boiled down:
as §1

For another data set, the target named is T1, BaF3 EML4-ALK (Homo sapiens, UniProt Q9UM73).
T1 construct: The EML4-ALK gene (variant 1) was synthesized at GenScript and cloned into pCDH-CMV-MCS-EF1-Puro plasmid (System Biosciences, Inc); fused on or other part: EML4 N-terminal part (variant 1: exons 1-13, with the coiled-coil that oligomerises the fusion) fused to the intracellular part of ALK, which contains the kinase domain; Q9HC35 (Echinoderm microtubule-associated protein-like 4)
Nature of the data set: Cell proliferation assay (CellTiter-Glo). It is filed as cell-based. The settings on record: anti-cell proliferation, 72 hours. The method, boiled down:
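Ba/F3 cells were lentivirally transduced with EML4-ALK variant 1 and selected for puromycin resistance and IL-3-independent growth. Proliferation was measured by CellTiter-Glo ATP luminescence to give IC50.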

For data set [1] the following is noted: amide bond; 13-membered ring; 3 steps.

pIC50: −log10 of the molar value.

T1 sequence (Q9UM73 whole entry, stated change not applied, the tested form may be a part): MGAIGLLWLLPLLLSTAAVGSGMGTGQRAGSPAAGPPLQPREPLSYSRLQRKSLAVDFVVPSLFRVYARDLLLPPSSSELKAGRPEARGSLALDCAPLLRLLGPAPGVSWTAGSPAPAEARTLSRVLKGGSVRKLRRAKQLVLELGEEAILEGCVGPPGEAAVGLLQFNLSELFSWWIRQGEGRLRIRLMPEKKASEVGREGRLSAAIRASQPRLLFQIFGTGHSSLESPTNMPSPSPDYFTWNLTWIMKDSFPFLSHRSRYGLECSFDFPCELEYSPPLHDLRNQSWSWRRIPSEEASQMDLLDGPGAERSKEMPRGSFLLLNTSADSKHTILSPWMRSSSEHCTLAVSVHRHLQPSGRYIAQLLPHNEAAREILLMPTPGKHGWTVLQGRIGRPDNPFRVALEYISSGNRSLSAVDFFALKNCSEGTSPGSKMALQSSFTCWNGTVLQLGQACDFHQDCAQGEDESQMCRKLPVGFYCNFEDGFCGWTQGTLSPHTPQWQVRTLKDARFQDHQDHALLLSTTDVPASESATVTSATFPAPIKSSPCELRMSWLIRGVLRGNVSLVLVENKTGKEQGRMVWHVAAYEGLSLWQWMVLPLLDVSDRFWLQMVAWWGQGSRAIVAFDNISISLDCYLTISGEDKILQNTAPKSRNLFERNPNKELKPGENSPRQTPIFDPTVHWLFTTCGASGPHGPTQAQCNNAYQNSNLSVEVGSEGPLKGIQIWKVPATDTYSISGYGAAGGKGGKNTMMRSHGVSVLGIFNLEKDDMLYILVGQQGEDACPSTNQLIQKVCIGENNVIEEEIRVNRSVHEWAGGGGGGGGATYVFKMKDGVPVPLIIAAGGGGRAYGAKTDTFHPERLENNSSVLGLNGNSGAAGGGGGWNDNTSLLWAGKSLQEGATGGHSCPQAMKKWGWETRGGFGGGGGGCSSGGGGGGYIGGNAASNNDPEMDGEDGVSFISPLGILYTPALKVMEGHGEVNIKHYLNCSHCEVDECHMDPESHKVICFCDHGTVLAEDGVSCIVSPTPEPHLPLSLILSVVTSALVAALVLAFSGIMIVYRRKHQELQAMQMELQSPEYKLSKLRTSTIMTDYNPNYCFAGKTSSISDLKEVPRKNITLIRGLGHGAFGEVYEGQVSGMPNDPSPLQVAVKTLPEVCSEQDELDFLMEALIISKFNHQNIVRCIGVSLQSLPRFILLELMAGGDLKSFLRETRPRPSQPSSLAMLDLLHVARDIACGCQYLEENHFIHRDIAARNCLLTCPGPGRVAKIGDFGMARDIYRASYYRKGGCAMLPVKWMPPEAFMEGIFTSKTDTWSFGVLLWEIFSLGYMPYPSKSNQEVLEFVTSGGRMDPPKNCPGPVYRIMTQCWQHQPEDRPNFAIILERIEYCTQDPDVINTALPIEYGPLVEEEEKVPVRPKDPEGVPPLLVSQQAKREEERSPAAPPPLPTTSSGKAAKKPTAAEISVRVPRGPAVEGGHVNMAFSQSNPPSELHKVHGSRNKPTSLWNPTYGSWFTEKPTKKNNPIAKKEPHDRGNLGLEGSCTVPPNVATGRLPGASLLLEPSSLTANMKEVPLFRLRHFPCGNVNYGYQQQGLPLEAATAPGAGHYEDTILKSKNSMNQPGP

Broadly, the pIC50 is −log10 of the IC50, conventionally taken in molar units. Read a low pIC50 as a high IC50. As to `C[C@@H]1COc2ncc(F)cc2[C@@H](C)N2c3nc4c(cnn4cc3OC[C@H]2C)C(=O)N1` [Compound 83, (4R,6R,13R)-8-fluoro-4,6,13-trimethyl-3,4,13,14-tetrahydro-6H-18,1-(metheno)[1,4]oxazino[3,4-i]pyrazolo[4,3-f]pyrido[3,2-l][1,4,8,10]oxatriazacyclotridecin-15(12H)-one], the pIC50 with KG-1 cell (OP2-FGFR1) was 7.52; in the data set on KM12 (TPM3-TRKA), greater than 9.70; against BaF3 EML4-ALK, 6.86.

`C[C@@H]1COc2ncc(F)cc2[C@H](C)N2c3nc4c(cnn4cc3OC[C@H]2C)C(=O)N1` [Compound 84, (4R,6S,13R)-8-fluoro-4,6,13-trimethyl-3,4,13,14-tetrahydro-6H-18,1-(metheno)[1,4]oxazino[3,4-i]pyrazolo[4,3-f]pyrido[3,2-l][1,4,8,10]oxatriazacyclotridecin-15(12H)-one]: the results for the pIC50 with KG-1 cell (OP2-FGFR1), with KM12 (TPM3-TRKA) and against BaF3 EML4-ALK were 6.89, greater than 9.70 and 6.44, respectively.

Regarding `C[C@@H]1COc2cn3ncc4c3nc2N1Cc1cc(F)cnc1OC[C@@H](C(F)(F)F)NC4=O` [Compound 85, (4R,13S)-8-fluoro-4-methyl-13-(trifluoromethyl)-3,4,13,14-tetrahydro-6H-18,1-(metheno)-[1,4]oxazino[3,4-i]pyrazolo[4,3-f]pyridol[3,2-l][1,4,8,10]oxatriaza-cyclotridecin-15(12H)-one], the values for the pIC50 in the data set on KG-1 cell (OP2-FGFR1), with KM12 (TPM3-TRKA) and on BaF3 EML4-ALK were 7.76, greater than 9.70 and 7.90, respectively.

For the compound `C[C@@H]1COc2cn3ncc4c3nc2N1Cc1cc(F)cnc1O[C@@H]1CC[C@@H](C1)NC4=O` [Compound 86, (6S,9R,17R)-13-fluoro-17-methyl-6,7,8,9,17,18-hexahydro-15H-6,9-methano-1,20-(metheno)[1,4]-oxazino[4,3-e]pyrazolo[3,4-h]-pyrido[2,3-b][1,5,7,11]oxatriaza-cyclopentadecin-4(5H)-one], the negative logarithm of the IC50 (pIC50) with KG-1 cell (OP2-FGFR1) was 8.57; with KM12 (TPM3-TRKA) it was greater than 9.70; on BaF3 EML4-ALK, 8.14.

For `C[C@@H]1COc2cn3ncc4c3nc2N1Cc1cc(F)cnc1O[C@H]1CC[C@H](C1)NC4=O` [Compound 87, (6R,9S,17R)-13-fluoro-17-methyl-6,7,8,9,17,18-hexahydro-15H-6,9-methano-1,20-(metheno)[1,4]-oxazino[4,3-e]pyrazolo[3,4-h]-pyrido[2,3-b][1,5,7,11]oxatriaza-cyclopentadecin-4(5H)-one], the pIC50 in the data set on KG-1 cell (OP2-FGFR1) is 7.76; with KM12 (TPM3-TRKA) it was greater than 9.70; on BaF3 EML4-ALK it was 7.82.

For `C[C@@H]1COc2ncc(F)cc2CN2C[C@@H](O)COc3cn4ncc(c4nc32)C(=O)N1` [Compound 88, (4R,14R)-9-fluoro-4-hydroxy-14-methyl-4,5,14,15-tetrahydro-3H,7H-19,1-(metheno)[1,4]-oxazepino[3,4-i]pyrazolo[4,3-f]pyrido[3,2-l][1,4,8,10]oxatriaza-cyclotridecin-16(13H)-one], the pIC50 in the data set with KG-1 cell (OP2-FGFR1) is 5.52; in the data set with KM12 (TPM3-TRKA) it was 8.51; against BaF3 EML4-ALK it was 5.30.

In the case of `C[C@@H]1COc2cn3ncc4c3nc2N1Cc1cc(F)cnc1OC[C@H](O)CNC4=O` [Compound 89, (7R,16R)-12-fluoro-7-hydroxy-16-methyl-5,6,7,8,16,17-hexa-hydro-4H,14H-1,19-(metheno)-[1,4]oxazino[4,3-e]pyrazolo[3,4-h]pyrido[2,3-b][1,5,7,11]oxatriaza-cyclotetradecin-4-one], the pIC50 with KG-1 cell (OP2-FGFR1) was 6.40; with KM12 (TPM3-TRKA) it was greater than 9.70; on BaF3 EML4-ALK it was 5.72.

As for `CO[C@@H]1COc2cn3ncc4c3nc2N(Cc2cc(F)cnc2O[C@@H](C)CNC4=O)C1` [Compound 91, (4S,13S)-9-fluoro-4-methoxy-13-methyl-4,5,14,15-tetrahydro-3H,7H-19,1-(metheno)[1,4]oxazepino[3,4-i]pyrazolo[4,3-f]pyrido[3,2-1][1,4,8,10]oxatriazacyclotridecin-16(13H)-one], the pIC50 with KG-1 cell (OP2-FGFR1) is 6.00; in the data set with KM12 (TPM3-TRKA), 7.19; on BaF3 EML4-ALK it was 6.63.

In the case of `COC[C@H]1COc2ncc(F)cc2CN2c3nc4c(cnn4cc3OC[C@H]2C)C(=O)N1` [Compound 92, (4R,13S)-8-fluoro-13-(methoxy-methyl)-4-methyl-3,4,13,14-tetrahydro-6H-18,1-(metheno)-[1,4]oxazino[3,4-i]pyrazolo[4,3-f]pyrido[3,2-l][1,4,8,10]oxatriaza-cyclotridecin-15(12H)-one], the results for the pIC50 in the data set on KG-1 cell (OP2-FGFR1), in the data set on KM12 (TPM3-TRKA) and on BaF3 EML4-ALK were 6.48, 8.24 and 5.70, respectively.

In the case of `C[C@H]1CNC(=O)c2cnn3cc4c(nc23)N(Cc2cc(F)cnc2O1)C[C@@H](F)CO4` [Compound 93, (4R,13S)-4,9-difluoro-13-methyl-4,5,14,15-tetrahydro-3H,7H-19,1-(metheno)[1,4]oxazepino[3,4-i]-pyrazolo[4,3-f]pyrido[3,2-l] [1,4,8,10]oxatriazacyclotridecin-16(13H)-one], the pIC50 with KG-1 cell (OP2-FGFR1) is less than 5.00; in the data set with KM12 (TPM3-TRKA), 6.72; at BaF3 EML4-ALK, less than 5.00.

In the case of `C[C@@H]1COc2cn3ncc4c3nc2N1Cc1cc(F)cnc1O[C@H]1C[C@H](C1)NC4=O` [Compound 95, (6S,8s,16R)-12-fluoro-16-methyl-5,6,7,8,16,17-hexahydro-4H,14H-6,8-methano-1,19-(metheno)[1,4]-oxazino[4,3-e]pyrazolo[3,4-h]-pyrido[2,3-b][1,5,7,11]oxatriaza-cyclotetradecin-4-one], the pIC50 in the data set with KG-1 cell (OP2-FGFR1) was 7.85; in the data set on KM12 (TPM3-TRKA), greater than 9.70; against BaF3 EML4-ALK, 7.78.

Regarding `C[C@@H]1COc2cn3ncc4c3nc2N1Cc1cc(F)cnc1OCCC1(CCC1)NC4=O` [Compound 96, (16′R)-12′-fluoro-16′-methyl-4′H,5′H,7′H,8′H,14′H,16′H,17′H-spiro[cyclobutane-1,6′-[9,18]-dioxa[1,2,5,10,15,20]hexaaza-[1,19](metheno)[1,4]oxazino-[4,3-e]pyrazolo[3,4-h]pyrido[2,3-b][1,5,7,11]oxatriazacyclotetra-decin]-4′-one], the values for the negative-log IC50 (pIC50) in the data set on KG-1 cell (OP2-FGFR1), in the data set with KM12 (TPM3-TRKA) and at BaF3 EML4-ALK were 6.30, greater than 9.70 and 6.46, respectively.

As for `C[C@@H]1COc2cn3ncc4c3nc2N1Cc1cc(F)cnc1OC[C@@H](C(F)F)NC4=O` [Compound 97, (4R,13S)-13-(difluoromethyl)-8-fluoro-4-methyl-3,4,13,14-tetra-hydro-6H-18,1-(metheno)[1,4]-oxazino[3,4-i]pyrazolo[4,3-f]pyrido[3,2-l][1,4,8,10]oxatriaza-cyclotridecin-15(12H)-one], the pIC50 in the data set on KG-1 cell (OP2-FGFR1) is 7.70; with KM12 (TPM3-TRKA), greater than 9.70; on BaF3 EML4-ALK, 7.69.

Turning to `C[C@@H]1COc2cn3ncc4c3nc2N1Cc1cc(F)cnc1O[C@H](CO)CNC4=O` [Compound 98, (4R,12S)-8-fluoro-12-(hydroxymethyl)-4-methyl-3,4,13,14-tetrahydro-6H-18,1-(metheno)[1,4]oxazino[3,4-i]pyrazolo[4,3-f]pyrido[3,2-1][1,4,8,10]oxatriazacyclotridecin-15(12H)-one], the results for the pIC50 in the data set on KG-1 cell (OP2-FGFR1), in the data set with KM12 (TPM3-TRKA) and at BaF3 EML4-ALK were 5.52, 7.88 and 5.40, respectively.

In the case of `C[C@@H]1COc2cn3ncc4c3nc2N(Cc2cc(F)cnc2OCCC(C)(C)NC4=O)C1` [Compound 99, (17S)-12-fluoro-6,6,17-trimethyl-5,6,7,8,17,18-hexahydro-4H,14H,16H-1,20-(metheno)[1,4]oxazepino[4,3-e]pyrazolo[3,4-h]pyrido[2,3-b][1,5,7,11]oxatriazacyclotetradecin-4-one], the negative logarithm of the IC50 (pIC50) was 5.86 with KG-1 cell (OP2-FGFR1), 7.20 in the data set with KM12 (TPM3-TRKA) and 5.70 against BaF3 EML4-ALK.

As to `C[C@@H]1COc2cn3ncc4c3nc2N(Cc2cc(F)cnc2OC[C@@H](C)CNC4=O)C1` [Compound 100, (7S,17S)-12-fluoro-7,17-dimethyl-5,6,7,8,17,18-hexahydro-4H,14H,16H-1,20-(metheno)[1,4]oxazepino-[4,3-e]pyrazolo[3,4-h]pyrido-[2,3-b][1,5,7,11]oxatriaza-cyclotetradecin-4-one], the pIC50 with KG-1 cell (OP2-FGFR1) is 5.55; in the data set on KM12 (TPM3-TRKA), 7.14; against BaF3 EML4-ALK it was 5.60.

Regarding “(4R,13R)-8-fluoro-4,13-dimethyl-3,4,13,14-tetrahydro-6H-18,1-(metheno)[1,4]oxazino[3,4-i]pyrazolo[4,3-f]pyrido[3,2-l][1,4,8,10]oxatriazacyclotridecin-15(12H)-one”, the ring closure, isolated yield in data set [1] stood at 86%.

“(5R,13S)-9-fluoro-5,13-dimethyl-4,5,14,15-tetrahydro-3H,7H-19,1-(metheno)[1,4]oxazepino[3,4-i]pyrazolo[4,3-f]pyrido[3,2-l][1,4,8,10]oxatriazacyclotridecin-16(13H)-one” showed a ring closure, isolated yield in data set [1] of 79%.
